According to patent EP3636255A1 (priority 2018, dated 2020):
Like-named read-outs stand apart in the source and are kept apart here.

Key:
[1] = test system: anthrax toxin; assay type: cell-based, human; settings: RPE1 cells, 1 µM overnight
[2] = test system: Vesicular Stomatitis Virus (VSV); assay type: cell-based
[3] = test system: RPE1 cells
[4] = test system: HeLaMZ cells
[5] = test system: CerS3 cells lacking the indicated genes; experiment: Yeast growth assay of CerS3 cells lacking genes identified as hypersensitive by SATAY; settings: 2.5 µM; 48 h at 30°C
[6] = test system: yeast cells; experiment: Yeast growth assay (ten-fold serial dilution spotting) of WT yeast with empty vector or expressing mammalian ceramide synthases; settings: 48 h at 30°C

Compound	LF activity ([1]; 500 ng/ml PA83 and 50 ng/ml LF)	PA processing (PA83 to PA63, heptamer formation) ([1]; 500 ng/ml PA83 and 50 ng/ml LF)	MEK1(N) cleavage ([1]; control cleaved within 90 to 120 min)	inhibition of viral infection, concentration dependence [2]	viral infection (GFP-positive cells) [2]	reduction of viral infectivity ([2]; 1 µM)	cellular toxicity [3]	toxicity (cell count by DAPI-based nuclei count) [4]	toxicity (cell number by DAPI nuclei count) ([4]; at 1µM)	sensitivity of the mutants (colony size and density) [5]	sensitivity (colony size and density) ([6]; WT+CerS1, 5 to 20 µM)	sensitivity (colony size and density) ([6]; WT+CerS2, 5 to 20 µM)	sensitivity (colony size and density) ([6]; WT+CerS3, already at 5 µM)	sensitivity (colony size and density) ([6]; WT+CerS4, 5 to 20 µM)	sensitivity (colony size and density) ([6]; WT+CerS5, 10 µM)	sensitivity (colony size and density) ([6]; WT+CerS5, 20 µM)	sensitivity (colony size and density) ([6]; WT+CerS6, 10 µM)	sensitivity (colony size and density) ([6]; WT+CerS6, 20 µM)	sensitivity (colony size and density) ([6]; WT+EV (empty vector), 5 to 20 µM)	toxicity (cell number by DAPI nuclei count) ([4]; 0.2-2 µM)
CCCCCCCCCCCCCCCC(O)C(C)N (centres unmarked) [Formula 1, 2-aminooctadecan-3-ol]	prevented	unaffected	stabilized	Concentration dependent inhibition	reduced viral infection	substantial	not toxic	not toxic	starts to show some toxicity	slightly more sensitive	insensitive	insensitive	highly sensitive	insensitive	mildly sensitive	highly sensitive	mildly sensitive	highly sensitive	insensitive	
C#CCCCCCCCCCCCCCC(O)C(C)N (centres unmarked) [Formula 2, 2-aminooctadec-17-yn-3-ol]																				very little toxicity
